Bridge positions count the residues as written; N and C are the ends. Ends that are not written are not given here. Peptide text beside a SMILES is read from it.
Tests used:
hKv1.3 [1] = molecular target: T1, hKv1.3 (Homo sapiens, UniProt P22001); format: cell-based; conditions: for inhibition of whole-cell current at block equilibrium: 200 pM toxin, hKv1.3
T1 construct: endogenous in cells
Procedure: The human venous blood from anonymized healthy donors was obtained from a blood bank. The peripheral blood mononuclear cells were isolated through Histopaque1077 (Sigma-Aldrich Hungary, Budapest, Hungary) density gradient centrifugation. Cells obtained were resuspended in RPMI 1640 medium containing 10% fetal calf serum (Sigma-Aldrich), 100 µg/ml penicillin, 100 µg/ml streptomycin, and 2 mM L glutamine, seeded in a 24-well culture plate at a density of 5 x 10^5 cells per ml, and grown in a 5% CO2 incubator at 37°C for 2–5 days. Phytohemagglutinin A (Sigma-Aldrich) was added in 5, 7, and 10 µg/ml concentrations to the medium to boost the potassium ion channel expression.
(§8) Electrophysiological measurements were performed by using the patch-clamp technique in whole-cell or outside-out patch configuration and voltage clamp mode using the Multiclamp 700B amplifier and Axon Digidata1440 digitizer (Molecular Devices, Sunnyvale, CA). Micropipettes were pulled from GC150F-15 borosilicate capillaries (Harvard Apparatus Kent, United Kingdom), resulting in 3–5 MΩ resistance in the bath solution. The extracellular solution contained 145 mM NaCl, 5 mM KCl, 1 mM MgCl2, 2.5 mM CaCl2, 5.5 mM glucose, and 10 mM HEPES, with a pH of 7.35 and an osmolarity between 302 and 308 mOsM/L. When the toxins were dissolved at different molar concentrations in bath solution, it was supplemented with 0.1 mg/ml of BSA. The pipette filling (intracellular) solution consisted of 140 mM KF, 2 mM MgCl2, 1 mM CaCl2, 10 mM HEPES, and 11 mM EGTA, with a pH of 7.22 and an osmolarity of 295 mOsM/L.
To record the hKv1.3 and hKv1.2 currents, 15- to 200-ms-long depolarization impulses were applied at +50 mV from a holding potential of −120 mV every 15 s. The pClamp 10.1 software package was used to acquire and analyze the measured data. Current traces were low-pass filtered by the analog four-pole Bessel filters of the amplifiers, and the sampling frequency was set at 20 kHz, at least twice that of the filter cutoff frequency. The effect of the toxin at a given molar concentration was calculated as the remaining current fraction (RCF = I/I0, where I0 is the peak current in the absence of the toxin and I is the peak current at equilibrium block at a given toxin concentration). The data points on dose–response curves represent the mean of 3–4 individual measurements. […]
Pharmacological activity of both versions of rMgTx was evaluated by studying their effect on the hKv1.2 and hKv1.3 ion channels. The hKv1.2 current was recorded in CHO cells, which heterologously expressed the hKv1.2 ion channel, and hKv1.3 current was recorded in the human peripheral blood lymphocytes. […]

hKv1.2 [2] = molecular target: T2, hKv1.2 (Homo sapiens, UniProt P16389); assay: Patch-clamp block of hKv1.2 current (dose-response / equilibrium block) in transfected CHO cells; format: cell-based; conditions: for block of whole-cell current at equilibrium: 100 pM toxin, hKv1.2, CHO cells
T2 construct: GFP (from vector pCMV6-GFP); host or cells: CHO cells, transient transfection with Lipofectamine 2000
T2 sequence (P16389 whole entry): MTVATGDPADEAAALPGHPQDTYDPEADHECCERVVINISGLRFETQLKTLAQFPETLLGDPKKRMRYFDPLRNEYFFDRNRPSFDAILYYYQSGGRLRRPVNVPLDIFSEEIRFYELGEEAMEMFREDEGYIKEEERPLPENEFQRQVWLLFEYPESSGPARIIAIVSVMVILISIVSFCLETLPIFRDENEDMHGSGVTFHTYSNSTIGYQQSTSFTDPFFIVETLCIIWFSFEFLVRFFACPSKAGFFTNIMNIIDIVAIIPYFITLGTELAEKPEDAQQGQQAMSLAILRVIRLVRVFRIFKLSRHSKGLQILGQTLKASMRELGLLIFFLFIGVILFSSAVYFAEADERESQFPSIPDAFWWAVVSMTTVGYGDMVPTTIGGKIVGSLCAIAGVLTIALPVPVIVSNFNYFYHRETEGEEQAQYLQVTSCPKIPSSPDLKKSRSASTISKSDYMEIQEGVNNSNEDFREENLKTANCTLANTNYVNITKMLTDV
Procedure: as §8
Pharmacological activity of both versions of rMgTx was evaluated by studying their effect on the hKv1.2 and hKv1.3 ion channels. […] A custom-built perfusion system was used to apply toxins at a very small perfusion rate of 200 µl/min. […]

hKv1.3 [3] = molecular target: T1, hKv1.3; assay: Binding and unbinding kinetics (wash-in/washout, patch-clamp) on hKv1.3; conditions: for koff: Kv1.3, calculated from averaged τ off; for koff / k on: 3-5 independent experiments; for k on: Kv1.3, calculated from averaged τ on and τ off, 200 pM toxin; for τ on: hKv1.3, 200 pM toxin, wash-in, single exponential; for τ on / τ off: n = 4, ± SEM; for τ off: hKv1.3, washout after 200 pM toxin
Procedure: (§1) Electrophysiological measurements were performed by using the patch-clamp technique in whole-cell or outside-out patch configuration and voltage clamp mode using the Multiclamp 700B amplifier and Axon Digidata1440 digitizer (Molecular Devices, Sunnyvale, CA). Micropipettes were pulled from GC150F-15 borosilicate capillaries (Harvard Apparatus Kent, United Kingdom), resulting in 3–5 MΩ resistance in the bath solution. The extracellular solution contained 145 mM NaCl, 5 mM KCl, 1 mM MgCl2, 2.5 mM CaCl2, 5.5 mM glucose, and 10 mM HEPES, with a pH of 7.35 and an osmolarity between 302 and 308 mOsM/L. When the toxins were dissolved at different molar concentrations in bath solution, it was supplemented with 0.1 mg/ml of BSA. The pipette filling (intracellular) solution consisted of 140 mM KF, 2 mM MgCl2, 1 mM CaCl2, 10 mM HEPES, and 11 mM EGTA, with a pH of 7.22 and an osmolarity of 295 mOsM/L.
(§2) To record the hKv1.3 and hKv1.2 currents, 15- to 200-ms-long depolarization impulses were applied at +50 mV from a holding potential of −120 mV every 15 s. The pClamp 10.1 software package was used to acquire and analyze the measured data. Current traces were low-pass filtered by the analog four-pole Bessel filters of the amplifiers, and the sampling frequency was set at 20 kHz, at least twice that of the filter cutoff frequency. The effect of the toxin at a given molar concentration was calculated as the remaining current fraction (RCF = I/I0, where I0 is the peak current in the absence of the toxin and I is the peak current at equilibrium block at a given toxin concentration). The data points on dose–response curves represent the mean of 3–4 individual measurements. The data points were fitted with a three-parameter [inhibition] vs response model, RCF = Bottom + [Top–Bottom)/(1+([toxin]/K d )], where Top and Bottom values were constrained to 1 and 0, respectively, and [toxin] is the concentration of the toxin. The best fit curve gave K d of the given toxin.
(§3) To examine the effect of additional residues of TrMgTx on binding to the ion channel, the association and dissociation rate constants of both the versions of the toxin were determined for the Kv1.3 channel of the activated human T lymphocytes and the hKv1.2 channel transiently expressed in the CHO cell. Whole-cell currents were recorded after applying the toxin (200 pM for Kv1.3 and 100 pM for Kv1.2) to the extracellular solution until the equilibrium block was achieved (wash-in), and then removed it by perfusing the toxin-free control solution (washout). Peak currents at a time point t [I(t)] were normalized to the peak current in the absence of the toxin [Inorm(t) = I(t)/I0], and these were plotted as a function of time. The association time constant (τ on ) was determined by fitting the data points during the wash-in procedure in the one-phase decay equation: Inorm(t)=((1−RCF)×e^−t/τon)+RCF , with the RCF = I/I0 at the equilibrium block as defined in the Electrophysiology section. The dissociation time constant (τ off ) was determined by fitting the following equation to the data points during the washout procedure: Inorm(t)=RCF+(1−e^−t/τoff).
(§4) The association rate constant (k on ) and dissociation rate constant (k off ) were calculated from the measured time constants, assuming a simple bimolecular interaction between the channel and toxin, and by using the following equations ([Peter et al., 2001]), with τon and τoff defined above, and [toxin] as the toxin concentration: kon=1−(τon×koff)/τon×[toxin], koff=1/τoff.

hKv1.2 [4] = molecular target: T2, hKv1.2; assay: Binding and unbinding kinetics (wash-in/washout, patch-clamp) on hKv1.2; conditions: for k on: Kv1.2, calculated from averaged τ on and τ off, 100 pM toxin; for τ on: hKv1.2, 100 pM toxin, wash-in; for τ on / τ off: ± SEM; for recovery from block on washout: hKv1.2, toxin-free solution after 100 pM; for τ off: hKv1.2, washout after 100 pM toxin
Procedure: CHO cells were transiently transfected with the vector pCMV6-GFP (OriGene Technologies, Germany) encoding the human Kv1.2 ion channel using Lipofectamine 2000 (Invitrogen, Carlsbad, CA), following the manufacturer's protocol, and grown under the standard conditions as used previously ([Bagdány et al., 2005]). GFP-positive transfectants were identified with Nikon TE 2000U fluorescence microscope (Nikon, Tokyo, Japan), and currents were recorded after 24 h post transfection.
as §1, §2, §3, §4

[5] = test system: IL2R (CD25) expression in CD4^+ TEM cells; assay: IL2R (CD25) expression in anti-CD3-stimulated CD4+ TEM lymphocytes (flow cytometry); format: cell-based, human; conditions: for inhibition of IL2R expression: 24 h anti-CD3 stimulation, three donors, technical duplicates, MFI normalized to stimulated; for effect on upregulation of IL2R expression: ∼100× K d (TrMgTx 8.5 nM, UrMgTx 5 nM), 24 h, anti-CD3
Description: (§5) The mononuclear cells were isolated from anonymized healthy donors as described earlier. Prior to CD4^+ TEM cells separation, dead cells were removed using the Dead Cell Removal Microbead Kit (Miltenyi Biotec B.V & CO. KG, Bergisch Gladbach, Germany). Untouched CD4^+ TEM lymphocytes were purified through magnetic cell sorting (negative selection) with the CD4^+ Effector Memory T Cell Isolation Kit (Miltenyi Biotec B.V. & Co. KG, Bergisch Gladbach, Germany) according to the manufacturer's protocol.
(§6) For TCR-specific stimulation, anti-human CD3 monoclonal antibodies (clone OKT3, BioLegend, San Diego, CA) were bound to the surface of 24-well cell culture plates at a density of 5 µg/well in phosphate-buffered saline (PBS) overnight at 4°C. Before seeding the cells, the wells were washed twice with PBS to remove the unbound antibodies. The CD4^+ TEM cells were divided into four groups: 1) unstimulated, 2) stimulated, 3) stimulated + TrMgTx (8.5 nM), and 4) stimulated + UrMgTx (5 nM). The cells were seeded at a density of 0.5×10^6 cells/ml per well, and when indicated, the cells were preincubated with the toxins for 5 min prior to the stimulation. The plate was incubated at 37°C in 5% CO2 for 24 h. Each experiment was performed in technical duplicates on three different donors.
(§7) For quantifying the extent of TEM cell stimulation, cells were washed with PBS buffer containing 1% of fetal bovine serum (FBS) and stained with fluorescein isothiocyanate (FITC)–labeled anti-human CD154 (CD40L) antibody (clones 24–31, BioLegend, San Diego, CA) and PerCP/Cyanine5.5–labeled anti-human CD25 (IL2R) antibody (clone BC96, BioLegend) at 4°C for 20 min. Cells were washed with the PBS + 1% FBS buffer and resuspended in 150 µl in PBS + 1% FBS. Samples were measured with NovoCyte 3000 RYB flow cytometer (ACEA Bioscience Inc.), FITC and PerCP/Cyanine5.5 were excited by using blue laser (488 nm), and 530/30 nm and 695/40 nm emission filters were used, respectively. Flow cytometry data were analyzed using FCS Express 6.0 (De Novo Software, Glendale, CA). Briefly, cells were gated on the basis of their FSC and SSC parameters, and then, the histograms corresponding to CD40L and CD25 were plotted as peak-normalized overlays. Mean fluorescent intensities (MFIs) were computed from the histograms and normalized to that of their stimulated (S) but not treated control. The negative (unlabeled) and unstimulated control (US) were always used for comparison.

[6] = test system: CD40L expression in CD4^+ TEM cells; assay: CD40L (CD154) expression in anti-CD3-stimulated CD4+ TEM lymphocytes (flow cytometry); format: cell-based, human; conditions: for CD40L expression of stimulated, treated cells vs unstimulated cells: TrMgTx 8.5 nM or UrMgTx 5 nM; for CD40L expression of stimulated, treated cells vs unstimulated cells / effect on upregulation of CD40L expression: 24 h; for inhibition of CD40L expression: 24 h anti-CD3 stimulation, three donors, technical duplicates, MFI normalized to stimulated; for effect on upregulation of CD40L expression: ∼100× K d (TrMgTx 8.5 nM, UrMgTx 5 nM), anti-CD3
Description: as §5, §6, §7

Kv1.3 = conditions: cited from earlier work
Procedure: Voltage-gated potassium (Kv) channels are present in a variety of cells and tissues where they regulate multiple physiological processes, including cardiac function, neural excitability, muscle contraction, cell proliferation, cell volume control, and hormonal secretion ([Coetzee et al., 1999]; [Giangiacomo et al., 2004]). […] Previous studies report the production of recombinant MgTx (rMgTx) in E. coli and P. ... || Pharmacological activity of both versions of rMgTx was evaluated by studying their effect on the hKv1.2 and hKv1.3 ion channels. The hKv1.2 current was recorded in CHO cells, which heterologously expressed the hKv1.2 ion channel, and hKv1.3 current was recorded in the human peripheral blood lymphocytes. The stimulation of the hKv1.3 channel expression (activation of isolated mononuclear cells by PHA, see the Materials and Methods section) and recording conditions (no Ca^2+ in the pipette to elicit Ca^2+-activated K^+ channels) guaranteed that the current recorded in these cells is K^+ current ... || (+ 2 further places)

T1 sequence (P22001 whole entry): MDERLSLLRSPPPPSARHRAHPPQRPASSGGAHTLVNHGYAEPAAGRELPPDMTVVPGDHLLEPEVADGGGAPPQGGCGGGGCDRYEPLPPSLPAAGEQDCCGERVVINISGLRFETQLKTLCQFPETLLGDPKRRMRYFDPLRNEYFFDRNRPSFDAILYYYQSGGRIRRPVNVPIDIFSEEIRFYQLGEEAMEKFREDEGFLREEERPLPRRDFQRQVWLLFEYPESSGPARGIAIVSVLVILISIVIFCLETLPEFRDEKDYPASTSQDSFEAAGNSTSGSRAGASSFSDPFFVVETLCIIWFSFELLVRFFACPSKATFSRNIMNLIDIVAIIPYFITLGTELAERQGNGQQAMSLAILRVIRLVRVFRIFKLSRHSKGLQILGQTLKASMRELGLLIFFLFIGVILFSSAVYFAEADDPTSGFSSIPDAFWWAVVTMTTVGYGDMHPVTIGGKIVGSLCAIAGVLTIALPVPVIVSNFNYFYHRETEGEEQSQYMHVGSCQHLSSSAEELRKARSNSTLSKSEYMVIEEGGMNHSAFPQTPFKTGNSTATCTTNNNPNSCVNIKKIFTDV

## CC[C@H](C)[C@H](NC(=O)[C@@H](N)[C@@H](C)O)C(=O)N[C@H](C(=O)N[C@@H](CC(N)=O)C(=O)N[C@H](C(=O)N[C@@H](CCCCN)C(=O)N[C@H]1CSSC[C@@H]2NC(=O)[C@H](CCCCN)NC(=O)[C@H](C)NC(=O)CNC(=O)[C@H](C)NC(=O)[C@H](CO)NC(=O)[C@H](CCC(N)=O)NC(=O)CNC(=O)[C@H](Cc3ccccc3)NC(=O)[C@H](CCC(N)=O)NC(=O)[C@H](C)NC(=O)[C@H](CCCCN)NC(=O)[C@@H]3CSSC[C@@H](C(=O)N[C@@H](Cc4ccc(O)cc4)C(=O)N4CCC[C@H]4C(=O)N[C@@H](Cc4c[nH]cn4)C(=O)O)NC(=O)[C@H](CCCCN)NC(=O)[C@H](CSSC[C@H](NC(=O)[C@H](CCC(N)=O)NC(=O)[C@H](CCCCN)NC(=O)[C@@H]4CCCN4C(=O)[C@H](CO)NC(=O)[C@H]([C@@H](C)O)NC1=O)C(=O)N[C@@H](CC(C)C)C(=O)N1CCC[C@H]1C(=O)N1CCC[C@H]1C(=O)N3)NC(=O)[C@H](CCCCN)NC(=O)CNC(=O)[C@H](CC(N)=O)NC(=O)[C@H](CCSC)NC2=O)C(C)C)[C@@H](C)CC [UrMgTx] (H-TIINVKCTSPKQCLPPCKAQFGQSAGAKCMNGKCKCYPH-OH; disulfide 7-29, 13-34, 17-36; N-terminus and C-terminus assumed)
hKv1.3 [1]
  inhibition of whole-cell current at block equilibrium: ~80%
hKv1.2 [2]
  block of whole-cell current at equilibrium: ~90%
hKv1.3 [3]
  koff: 0.00179 s⁻¹
  k on: 3.43e-05 pM⁻¹ s⁻¹
  τ on: 116 ± 10 s
  τ off: 560 ± 28 s
hKv1.3 [3]; hKv1.3, unpaired t test, n = 4, p < 0.001
  k on compared with TrMgTx: significantly higher
hKv1.2 [4]; 3-5 independent experiments
  k on: 4.62e-05 pM⁻¹ s⁻¹
hKv1.2 [4]
  τ on: 191 ± 12 s
  recovery from block on washout: slow and partial recovery
  τ off: 1308 ± 351 s
hKv1.2 [4]; hKv1.2, unpaired t test, n = 3-4, p < 0.001
  k off compared with TrMgTx: substantially lower
hKv1.2 [4]; hKv1.2, unpaired t test, n = 3-4, p < 0.01
  k on compared with TrMgTx: slightly higher
[5]; UrMgTx 5 nM
  inhibition of IL2R expression: ~45%
[5]
  effect on upregulation of IL2R expression: significantly reduced
[6]
  CD40L expression of stimulated, treated cells vs unstimulated cells: comparable to that of unstimulated cells
  effect on upregulation of CD40L expression: significantly reduced
[6]; UrMgTx 5 nM
  inhibition of CD40L expression: ~45%

## CC[N+](CC)(CC)CC [tetraethylammonium, reference compound]
hKv1.3 [1]
  reduction in peak current, positive control: Around 50%
Kv1.3
  Kd: 10 mM

## EFHHHHHHLQIEGRTIINVKCTSPKQCLPPCKAQFGQSAGAKCMNGKCKCYPH (disulfide 21-43, 27-48, 31-50) [TrMgTx]
hKv1.3 [1]
  inhibition of whole-cell current at block equilibrium: ~70%
hKv1.3 [1]; hKv1.3, dose-response
  potency relative to UrMgTx: slightly less potent
hKv1.2 [2]
  block of whole-cell current at equilibrium: about 60%
hKv1.2 [2]; hKv1.2, dose-response
  potency relative to UrMgTx: nearly fivefold less potent
hKv1.3 [3]
  koff: 0.00179 s⁻¹
  k on: 2.14e-05 pM⁻¹ s⁻¹
  τ on: 168 ± 19 s
  τ off: 568 ± 84 s
hKv1.3 [3]; hKv1.3
  association rate, fold lower than UrMgTx: ~1.6 fold
hKv1.2 [4]; Kv1.2, calculated from averaged τ off, 3-5 independent experiments
  koff: 0.0019 s⁻¹
hKv1.2 [4]; 3-5 independent experiments
  k on: 3.05e-05 pM⁻¹ s⁻¹
hKv1.2 [4]; hKv1.2
  association rate, fold lower than UrMgTx: ~1.6 fold
hKv1.2 [4]
  τ on: 202 ± 2.3 s
  recovery from block on washout: slow but full recovery
  τ off: 532 ± 69 s
[5]; TrMgTx 8.5 nM
  inhibition of IL2R expression: ~39%
[5]
  effect on upregulation of IL2R expression: significantly reduced
[6]
  CD40L expression of stimulated, treated cells vs unstimulated cells: comparable to that of unstimulated cells
  effect on upregulation of CD40L expression: significantly reduced
[6]; TrMgTx 8.5 nM
  inhibition of CD40L expression: ~36%

Source: paper PMC8511391, “Optimization of Pichia pastoris Expression System for High-Level Production of Margatoxin” (Frontiers in Pharmacology, 2021)
